# “And” between values parts separate entries of the source, which are not always exact repeats. Equal entries are not always repeated. Where two headings read alike, the source gives them in different places.
# How the values were obtained:
# CCRF-CEM cells [1] = assay: Intracellular accumulation of [3H]vinblastine in CCRF-CEM cells; type: cell-based, human; details: 30 μM
# Experimental: (§1) *Cells were preloaded with [^3 H]
# (§2) times (or without wash) with 100 ml cold medium to remove extracellular
# (§3) with or without a reverse prenyl compound or an MDRreversing agent. Cells
# (§4) were then separated from radioactive medium by microfuge oillayer method.
# (§5) Extracellular space counts carried down # by cells (^3 HInulin space
# (§6) were subtracted from the total radioactive counts.
# P388/0 tumor [2] = details: DMNAA 50.0 mg/kg
# CCRF-CEM cells [3] = assay: Cytotoxicity / growth inhibition of CCRF-CEM leukemic cells
# CCRF-CEM/VBL100 cells [4] = assay: cells; details: Homo sapiens, read-out: IC50 of reversing agent, Table 6B, CCRF-CEM/VBL
# DC-3F/ADX cells = assay: Cytotoxicity toward DC-3F/ADX cells; type: cell-based, hamster
# CCRF-CEM/VLB-100 cells = assay: Intracellular accumulation of [3H]vinblastine in CCRF-CEM/VLB-100 cells; type: cell-based, human; details: 30 μM
# Experimental: as §1, §2, §3, §4, §5, §6
# DC-3F/ADII cells [5] = system: DC-3F/ADII cells
# CCRF-CEM/VM-1 cells = assay: Cytotoxicity toward VM-26-resistant CCRF-CEM/VM-1 cells (mutated Topo II gene); type: cell-based, human; details: for IC50: Table 6B, CCRF-CEM/VM-1, read-out: IC50 of reversing agent
# DC-3F/ADII cells [6] = assay: cells; details: Mesocricetus auratus, DC3F
# DC-3F hamster lung cells [7] = assay: Cytotoxicity toward DC-3F hamster lung cells
# P388/DX tumor = assay: Combination therapy of adriamycin & 5-N-acetyl-ardeemin or verapamil in B6D2F1 mice bearing P388/DX tumor; details: for Days survived: individual mice 1-5;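 for all read-outs here: male BDF mice implanted intraperitoneally with P388/DX cells, 10^6 per mouse, dosed from day 1 on a QDX4, QWX2 schedule, five mice per dose group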
# CCRF-CEM/VBL100 cells [8] = system: CCRF-CEM/VBL100 cells
# P388/O tumor = assay: Combination therapy of adriamycin & 5-N-acetyl-ardeemin or verapamil in B6D2F1 mice bearing P388/O tumor; details: for Days survived: individual mice 1-5;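 for all read-outs here: male BDF mice carrying P388/O given intraperitoneally, dosing begun on day 1 on a QDX4, QWX2 schedule, five animals per dose level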
# CCRF-CEM cells [9] = assay: Influx of [3H]VP-16 in CCRF-CEM cells; type: cell-based, human
# CCRF-CEM cells [10] = system: CCRF-CEM cells
# CCRF-CEM cells [11] = assay: Accumulation of VP-16 in CCRF-CEM cells preloaded with [3H]VP-16; details: Homo sapiens, 0.5 h, read-out: increase of intracellular accumulation of VP-16
# DC-3F hamster lung cells [12] = details: dc-3f cells
# CCRF/VM-1 cells = assay: Intracellular accumulation of VP-16 in CCRF/VM-1 cells; details: Homo sapiens, 0.5 h, read-out: increase of VP-16 accumulation
# P388 leukemic cells = assay: Drug combination of adriamycin and 5-N-acetyl-ardeemin against P388 cell growth (XTT); details: Mus musculus, P388, drug alone
# P388/0 = assay: Survival time evaluation for BDF mice bearing P388/0; details: for survival time: individual mice
# P388/DX = assay: Survival time evaluation for BDF mice bearing P388/DX; details: for survival time: individual mice
# P388/0 tumor [13] = assay: Combination therapy of adriamycin, vinblastine and des-Me-N-acetyl-ardeemin in B6D2F1 mice bearing P388/0 tumor; details: for Days survived: individual mice 1-5, listed as Adr.
# P388/DX leukemic cells = assay: Drug combination of adriamycin and 5-N-acetyl-ardeemin against P388/DX cell growth (XTT); type: cell-based; details: drug alone
# Text: | microplate, 25,000 cell/well, N = 2.
# HCT116(VM)46 cells = assay: Cytotoxicity (XTT, 72 hr) in multidrug resistant HCT116(VM)46 cells; type: cell-based; details: IC50 HCT116(VM)46 / HCT116; 4320 min
# Experimental: All drug exposures were for 72 hr and cytotoxicity was measured by XTT tetrazolium dye assay.
smiles,measurement,setting,value
"C=CC(C)(C)C12CC3c4nc5ccccc5c(=O)n4CC(=O)N3C1N(C(C)=O)c1ccccc12 (stereo not drawn) [5-N-Ac-8-desmethyl-Ardeemin, N-Acetyl-8-desmethyl-ardeemin]",[3H]vinblastine accumulation,CCRF-CEM cells [1]; washed,29.33 fmole/10^3 cells
same,[3H]vinblastine accumulation,CCRF-CEM cells [1]; without wash,33.13 fmole/10^3 cells
same,% ILS,P388/0 tumor [2],+1%
same,MST,P388/0 tumor [2],8.40 days
same,IC50,"CCRF-CEM cells [3]; Homo sapiens, read-out: IC50 of reversing agent, Table 6B, CCRF-CEM",22.7 µM
same,IC50,CCRF-CEM/VBL100 cells [4],32.9 µM
same,IC50,"DC-3F/ADX cells; DC3F/ADX, DC-3F/ADX",3.98 µM
same,(C)/(A),"DC-3F/ADX cells; IC50 ratio DC-3F/ADX to DC-3F, * collaterally sensitive",0.14 X
same,[3H]vinblastine accumulation,CCRF-CEM/VLB-100 cells; washed,7.66 fmole/10^3 cells
same,[3H]vinblastine accumulation,CCRF-CEM/VLB-100 cells; without wash,33.53 fmole/10^3 cells
same,(B)/(A),"DC-3F/ADII cells [5]; IC50 ratio DC-3F/ADII to DC-3F, * collaterally sensitive",0.50 X
same,IC50,"CCRF-CEM/VM-1 cells; Homo sapiens, CCRF-CEM",35.8 µM
same,IC50,DC-3F/ADII cells [6]; read-out: IC50 (B),14.6 µM
same,IC50,"DC-3F hamster lung cells [7]; Mesocricetus auratus, DC3F, read-out: IC50 (A), mean ± spread, mean of the determinations",29.3 ± 8.38 µM
same,IC50,"DC-3F hamster lung cells [7]; Mesocricetus auratus, DC3F, read-out: IC50 (A), single determinations",37.7 µM
same,IC50,"DC-3F hamster lung cells [7]; read-out: IC50 (A), single determinations",20.9 µM
"COc1ccc(CCN(C)CCCC(C#N)(c2ccc(OC)c(OC)c2)C(C)C)cc1OC (stereo not drawn) [Verapamil, verapamil]",IC50,"CCRF-CEM cells [3]; read-out: IC50 of reversing agent, Table 6B",296 µM
same,% ILS,P388/DX tumor; VPML 70 mg/kg (then 35),+5%
same,MST,P388/DX tumor; VPML 70 mg/kg (then 35),7.9 days
same,Days survived,P388/DX tumor; VPML 70 mg/kg (then 35),6.5 days and 7.25 days and 8.25 days and 9.25 days
same,IC50,"CCRF-CEM/VBL100 cells [8]; read-out: IC50 of reversing agent, Table 6B, CCRF-CEM/VBL",118 µM
same,collateral sensitivity,DC-3F/ADII cells [5]; in words,Collateral sensitivity is also observed
same,IC50,CCRF-CEM/VM-1 cells,118 µM
same,% ILS,P388/O tumor; VPML 70 mg/kg (then 35),+1%
same,MST,P388/O tumor; VPML 70 mg/kg (then 35),7.7 days
same,Days survived,P388/O tumor; VPML 70 mg/kg (then 35),7.0 days and 8.0 days and 8.6 days
same,VP-16 accumulation,"CCRF-CEM cells [9]; 100 μM, in words",also increased VP-16 accumulation
C=CC(C)(C)C12CC3c4nc5ccccc5c(=O)n4C(C)C(=O)N3C1Nc1ccccc12 (stereo not drawn) [Ardeemin],[3H]vinblastine accumulation,CCRF-CEM cells [1]; washed,29.94 fmole/10^3 cells
same,[3H]vinblastine accumulation,CCRF-CEM cells [1]; without wash,34.68 fmole/10^3 cells
same,IC90,CCRF-CEM cells [10],65.7 µM
same,IC50,"CCRF-CEM cells [3]; Homo sapiens, human leukemic CCRF-CEM cells",20.8 µM
same,fold induction at 20 µM,CCRF-CEM cells [11],3.1
same,IC80,DC-3F hamster lung cells [12],10.2 µM
same,IC90,DC-3F hamster lung cells [12],30.9 µM
same,fold induction at 20 µM,CCRF/VM-1 cells,1.51
same,[3H]vinblastine accumulation,CCRF-CEM/VLB-100 cells; washed,5.42 fmole/10^3 cells
same,[3H]vinblastine accumulation,CCRF-CEM/VLB-100 cells; without wash,22.84 fmole/10^3 cells
same,IC90,CCRF-CEM/VBL100 cells [8]; ccrf-cem/vbl100 cells,27.9 µM
same,IC90,DC-3F/ADII cells [5]; dc-3f/adii cells,24.6 µM
same,IC90,CCRF-CEM/VM-1 cells; ccrf-cem/vm-1 cells,88.8 µM
same,IC50,"DC-3F hamster lung cells [7]; Mesocricetus auratus, DC3F, relative cytotoxicity, DC-3F",10.2 µM
same,activation at 20 µM,"CCRF-CEM cells [9]; Homo sapiens, CCRF-CEM, 0.5 h, 20 μM, 30 min, 37° C., read-out: increase of VP-16 accumulation",33%
"COc1cccc2c1C(=O)c1c(O)c3c(c(O)c1C2=O)C[C@@](O)(C(=O)CO)C[C@@H]3O[C@H]1C[C@H](N)[C@H](O)[C@H](C)O1 [Adriamycin, adriamycin]",IC50,P388 leukemic cells,0.228 µM
same,% ILS,P388/0; adriamycin 0.333 mg/kg,85%
same,MST,P388/0; adriamycin 0.333 mg/kg,13.75
same,survival time,P388/0; adriamycin 0.333 mg/kg,12.25 and 13.0 and 14.25 and 15.5
same,% ILS,P388/0; adriamycin 1.0 mg/kg,129%
same,MST,P388/0; adriamycin 1.0 mg/kg,17.0
same,survival time,P388/0; adriamycin 1.0 mg/kg,14.25 and 15.5 and 18.0 and 20.25
same,% ILS,P388/0; adriamycin 3.0 mg/kg,145%
same,MST,P388/0; adriamycin 3.0 mg/kg,18.19
same,survival time,P388/0; adriamycin 3.0 mg/kg,16.0 and 17.25 and 19.25 and 20.25
same,% ILS,P388/DX tumor; Adr. 0.5 mg/kg,+49%
same,MST,P388/DX tumor; Adr. 0.5 mg/kg,11.3 days
same,Days survived,"P388/DX tumor; Adr. 0.5 mg/kg, listed as Adr.",7.5 days and 10.5 days and 12.25 days and 14.0 days
same,% ILS,P388/DX tumor; Adr. 1.0 mg/kg,+75%
same,MST,P388/DX tumor; Adr. 1.0 mg/kg,13.25 days
same,Days survived,"P388/DX tumor; Adr. 1.0 mg/kg, listed as Adr.",11.5 days and 12.25 days and 13.25 days and 16.0 days
same,MST,P388/DX tumor; Adr. 2.0 mg/kg,15.55 days
same,Days survived,"P388/DX tumor; Adr. 2.0 mg/kg, listed as Adr.",14.0 days and 15.0 days and 15.25 days and 16.5 days and 17.0 days
same,% ILS,P388/DX tumor; Adr. 3.0 mg/kg,+130%
same,MST,P388/DX tumor; Adr. 3.0 mg/kg,17.4 days
same,deaths of toxicity,"P388/DX tumor; Adr. 3.0 mg/kg, day 14",Two mice died of toxicity of drugs
same,Days survived,"P388/DX tumor; Adr. 3.0 mg/kg, listed as Adr.",14.0 days and 17.5 days and 21.0 days
same,% ILS,P388/DX; adriamycin 0.333 mg/kg,24%
same,MST,P388/DX; adriamycin 0.333 mg/kg,9.0
same,survival time,P388/DX; adriamycin 0.333 mg/kg,8.0 and 8.5 and 9.5 and 10.0
same,% ILS,P388/DX; adriamycin 1.0 mg/kg,37%
same,MST,P388/DX; adriamycin 1.0 mg/kg,9.75
same,survival time,P388/DX; adriamycin 1.0 mg/kg,9.0 and 10.0 and 10.25 and 10.5
same,% ILS,P388/DX; adriamycin 3.0 mg/kg,48%
same,MST,P388/DX; adriamycin 3.0 mg/kg,10.75
same,survival time,P388/DX; adriamycin 3.0 mg/kg,10.0 and 11.5 and 12.25
same,% ILS,P388/0 tumor [13]; Adr. 3.0 mg/kg,+63%
same,MST,P388/0 tumor [13]; Adr. 3.0 mg/kg,13.60 days
same,Days survived,P388/0 tumor [13]; Adr. 3.0 mg/kg,10.5 days and 13.5 days and 14.5 days and 15.0 days
same,% ILS,P388/0 tumor [13]; Adr. 5.0 mg/kg,+81%
same,MST,P388/0 tumor [13]; Adr. 5.0 mg/kg,15.10 days
same,Days survived,P388/0 tumor [13]; Adr. 5.0 mg/kg,10.5 days and 14.0 days and 16.0 days and 17.0 days and 18.0 days
same,IC50,"DC-3F/ADII cells [6]; read-out: IC50 for inhibiting cell growth, Table 7, DC-3F/SDII",0.38 µM
same,IC50,"DC-3F hamster lung cells [7]; Mesocricetus auratus, DC3F, read-out: IC50 for inhibiting cell growth, Table 7, DC-3F",0.03 µM
same,% ILS,P388/O tumor; Adr 0.5 mg/kg,+128%
same,MST,P388/O tumor; Adr 0.5 mg/kg,17.3 days
same,Days survived,"P388/O tumor; Adr 0.5 mg/kg, listed as Adr",15.5 days and 16.0 days and 17.0 days and 18.0 days and 20.0 days
same,% ILS,P388/O tumor; Adr 1.0 mg/kg,+152%
same,MST,P388/O tumor; Adr 1.0 mg/kg,19.1 days
same,Days survived,"P388/O tumor; Adr 1.0 mg/kg, listed as Adr",16.0 days and 19.0 days and 20.5 days and 21.0 days
same,% ILS,P388/O tumor; Adr 2.0 mg/kg,+178%
same,MST,P388/O tumor; Adr 2.0 mg/kg,21.1 days
same,Days survived,"P388/O tumor; Adr 2.0 mg/kg, listed as Adr",19.0 days and 20.5 days and 21.0 days and 22.5 days
same,% ILS,P388/O tumor; Adr 3.0 mg/kg,+181%
same,MST,P388/O tumor; Adr 3.0 mg/kg,19.8 days
same,deaths of toxicity,"P388/O tumor; Adr 3.0 mg/kg, day 12.5 and 15",Two mice died of toxicity of drugs
same,Days survived,"P388/O tumor; Adr 3.0 mg/kg, listed as Adr",12.5 days and 16.0 days and 20.5 days and 24.6 days and 26.5 days
same,IC50,P388/DX leukemic cells,2.14 µM
CC(=O)O[C@H]1C(=O)[C@@]2(C)[C@H]([C@H](OC(=O)c3ccccc3)[C@]3(O)C[C@H](OC(=O)[C@H](O)[C@@H](NC(=O)c4ccccc4)c4ccccc4)C(C)=C1C3(C)C)[C@]1(OC(C)=O)CO[C@@H]1C[C@@H]2O [paclitaxel],R/S ratio,HCT116(VM)46 cells,132
